# Measurements from patent publication US7585997B2, “Compounds and compositions for treating dysproliferative diseases, and methods of use thereof” (Chesterford Enterprises Limited, priority 2003, dated 2009).
# Read-outs that look alike come from different tables or passages of the source.
# Assays:
# Type in all cases: cell-based
# [1] = system: HT-29 human colon adenocarcinoma; assay: Cell growth inhibition, HT-29 cells
# [2] = system: BxPC3, carcinoma of pancreas; assay: Cell growth inhibition, BxPC3 cells; details: Homo sapiens, read-out: IC50, BxPC3, pancreas
# [3] = system: JB6c141 rat skin cells; assay: Colony Formation Assay (soft agar assay for colony formation); details: 100 micromolar, 14 days, with or without epidermal growth factor
# Description: The Colony Formation Assay, also known as “soft agar assay for colony formation” as described by David Bowtell (accessed on the Internet as recently as on Dec. 29, 2003 at http://grimwade.biochem.unimelb.edu.au/bowtell/cellbiol/sect71.htm) was also used to asses the neoplastic cell growth inhibitory effect of these compounds and using the JB6c141 rat skin cells. Briefly, and following the plating of cells in the presence or absence of epidermal growth factor and in each case, in the presence or absence of the test compound, they were incubated at […] in a humidified incubator for 14 days, when plates were stained 0.005% Crystal Violet for >1 hour, colonies were counted using a dissecting microscope.
# [4] = HT-29, 24 hr, read-out: IC50, HT-29, colon
# [5] = HT-29, 24 h, read-out: IC50, HT-29, colon
SMILES,"IC50 [1, 4] [µM]","IC50 ([2]; BXPC-3, 24 hr) [µM]","IC50 [1, 5] [µM]",other results
"O=C(O)/C=C/c1ccc(O)c(O)c1 [Caffeic acid, reference compound]",> 1000,> 1000,,
CC(C(=O)Oc1ccc(COc2ccc([N+](=O)[O-])cc2[N+](=O)[O-])cc1)c1ccc(-c2ccccc2)c(F)c1 (stereo not drawn) [Compound 1],,,,"colony formation [3]: abolished colony formation; IC50 ([1]; HT-29, 48 h): ~73 µM"
"CC(=O)Oc1ccccc1C(=O)Nc1ccc(CCl)cc1 [Compound 26, 2-(acetyloxy)benzoic acid 4-(chloromethyl)phenyl amide]",,,12 ± 3,
"CC(=O)Oc1ccccc1C(=O)Nc1ccc(CBr)cc1 [Compound 29, 2-(acetyloxy)benzoic acid 4-(bromomethyl)phenyl amide]",,,7 ± 2,"IC50 ([2]; BXPC-3, 24 h): 18 ± 3 µM"
"O=C(/C=C/c1ccc(O)c(O)c1)Oc1ccc(CO[N+](=O)[O-])cc1 [Compound 41, caffeic acid 4-(nitrooxymethyl)phenyl ester]",,,~0.5,
"O=C(/C=C/c1ccc(O)c(O)c1)Oc1ccc(CCl)cc1 [Compound 47, caffeic acid 4-(chloromethyl)phenyl ester]",,,0.25,

# The next lines start with results.
"IC50 [1, 4] [µM]","IC50 ([2]; BXPC-3, 24 hr) [µM]",SMILES,"IC50 [1, 5] [µM]",other results
> 500,> 500,CC(=O)Oc1ccccc1C(=O)Oc1ccc(CO)cc1 [2-(acetyloxy)benzoic acid 4-(hydroxymethyl)phenyl ester],,
> 1000,> 1000,"CC(=O)Oc1ccccc1C(=O)O [Aspirin, reference compound]",,
> 500,,O=C(/C=C/c1ccc(O)c(O)c1)Oc1ccc(CO)cc1 [Caffeic acid 4-(hydroxymethyl)phenyl ester],,
150 ± 12,,O=C(C=Cc1ccccc1)Oc1ccc(CO)cc1 [Cinnamic acid 4-(hydroxymethyl)phenyl ester],,
